Measured values reported in article PMC10291549, “Reaction Behavior of [1,3-Diethyl-4,5-diphenyl-1H-imidazol-2-ylidene] Containing Gold(I/III) Complexes against Ingredients of the Cell Culture Medium and the Meaning on the Potential Use for Cancer Eradication Therapy” (Journal of Medicinal Chemistry, 2023).

What was measured:
[1] = HPLC reactivity study with GSH in ACN/water; format: physicochemical; settings: 20 equiv GSH; for substitution to (NHC)Au(I)-GSH adduct 12: t0h (1.5 min)
Description: (§1) All nucleophiles (chloride, amino acids, and GSH) were separately reacted with 5–11 in ACN/water = 50/50 (v/v) mixtures at a complex concentration 0.5 mM. This solvent composition was chosen to prevent precipitation of the complex and the formed degradation products.
(§2) Amino acids, as well as GSH, were used in 20-fold excess, as realized at a complex concentration of 10 μM in the cell culture medium. Thereto, the respective complex, dissolved in ACN (1 mM), was combined with the same amount of aqueous solution of the nucleophile (20 mM).
(§3) The mixture was then incubated for 24 h at rt and monitored at various time points via HPLC using an RP-C18 column and gradient elution (70/30 (v/v) to 90/10 (v/v)) of ACN/water (0.1% trifluoroacetic acid (TFA)).
(§4) Experiments in ACN/water: 1.0 mM solutions of the respective complex were prepared in ACN and diluted with HPLC-grade water (50/50, (v/v)) containing the double-concentrated amount of respective amino acid (20 mM), GSH (20 mM), sodium ascorbate (20 mM), or NADPH (20 mM). As a chloride source, an aqueous solution of KCl 0.8 g/L and NaCl 12 g/L was used. In each case, a final complex concentration of 0.5 mM was achieved. The solutions were incubated for 24 h at rt. For the experiments with RPMI 1640, the aqueous phase was replaced by a cell culture medium.
(§5) Samples (20 μL each) were taken at appropriate time points (t = 0 (1.5 min), 0.5, 1, 1.5, 2, 8, 12, and 24 h) and analyzed with a Shimadzu prominence HPLC system. The mobile phase consisted of ACN (HPLC-grade) and water (HPLC-grade) with 0.1% TFA. To achieve a separation of the compounds, gradient elution from (70/30 (v/v) to 90/10 (v/v)) of ACN/water (0.1% trifluoroacetic acid (TFA)) was used with a flow rate of 1 mL/min at an oven temperature of 35 °C. All solvents have been degassed before use. The injection volume was 20 μL, and the detection wavelength was set at 235 nm, to detect the gold complexes and the amino acids in the chromatogram.

K562 cells = format: cell-based; settings: 72 h incubation; mean ± SD of two or three independent experiments; read-out: metabolic activity IC50, K562
[2] = tested on: A2780cis cells (Cisplatin-resistant); format: cell-based, human; settings: 72 h incubation; mean ± SD of two or three independent experiments; read-out: metabolic activity IC50, A2780cis
[3] = tested on: MCF-7TamR cells (Tamoxifen-resistant subline); format: cell-based, human; settings: 72 h incubation; mean ± SD of two or three independent experiments; read-out: metabolic activity IC50, MCF-7TamR
[4] = tested on: SV-80 lung fibroblast cells; assay: Modified MTT assay in noncancerous cells; format: cell-based
A549 cells = format: cell-based; settings: 72 h incubation; mean ± SD of two or three independent experiments; read-out: metabolic activity IC50, A549
IGROV1-CSC cells = format: cell-based; settings: 72 h incubation; mean ± SD of two or three independent experiments; read-out: metabolic activity IC50, IGROV1-CSC
[5] = HPLC degradation study in ACN/RPMI 1640 cell culture medium; settings: for conversion to 5: ACN/RPMI 1640 50/50 (without FCS); for conversion to 5 / formation of 8 / formation of GSH-adduct 12: 0.5 mM
A2780 cells = format: cell-based, human; settings: 72 h incubation; mean ± SD of two or three independent experiments; read-out: metabolic activity IC50, A2780
[6] = tested on: K562-R cells (Doxorubicin-resistant subclone); format: cell-based; settings: 72 h incubation; mean ± SD of two or three independent experiments; read-out: metabolic activity IC50, K562-R
MCF-7 cells = format: cell-based, human; settings: 72 h incubation; mean ± SD of two or three independent experiments; read-out: metabolic activity IC50, MCF-7
[7] = tested on: A549-R cells (Taxol/Paclitaxel-resistant subclone); format: cell-based; settings: 72 h incubation; mean ± SD of two or three independent experiments; read-out: metabolic activity IC50, A549-R
[8] = HPLC reactivity study in chloride containing ACN/water; format: physicochemical; settings: for conversion to 5: ACN/water 50/50, 6.0 g/L NaCl + 0.4 g/L KCl, 0.5 mM complex, rt
IGROV1 cells = format: cell-based; settings: 72 h incubation; mean ± SD of two or three independent experiments; read-out: metabolic activity IC50, IGROV1
[9] = HPLC reactivity study with NADPH; format: physicochemical; settings: 24 h
Description: (§6) GSH caused only substitution reactions, without reduction of Au(I) to Au(0). […] Neither reduction to gold(0), release of the NHC ligand, nor coordination to the gold(I) center occurred.
as §4, §5

[10] = HPLC reactivity study with sodium ascorbate; format: physicochemical; settings: 24 h
Description: as §6, §4, §5

[11] = HPLC control experiment with GSH in PBS; format: physicochemical; settings: 20 equiv GSH in PBS
Description: The reduced transformation (compared to the direct reaction with GSH) might be the consequence of the high chloride concentration in the medium. To confirm this assumption, 5 was incubated in a control experiment with 20 equiv of GSH (as described above) in phosphate buffered saline (PBS). At t0h, 65.7% of 12 was formed. The amount increased during 24 h to 68.0% of 12 and 2.1% of 8 appeared (Figure S33).
as §4, §5

[12] = FCS influence on stability of 7 in RPMI 1640 (protein binding, HPLC); format: in vitro ADME; settings: 4 h, 37 °C
Description: The complex (conc. 30 μM) dissolved in RPMI 1640 medium supplemented with 10% FCS was incubated for 4 h at 37 °C in the dark. Subsequently, the proteins were precipitated with ACN and the supernatant was dried by lyophilization. The remaining complexes were extracted from the lyophilizate with DCM. The organic layer was evaporated, and the residue was finally dissolved in 1 mL of ACN. This solution was then analyzed by HPLC as described above.
To 11 mL of RPMI 1640 including 10% FCS, 11 μL of a freshly prepared 3 mM DMF solution of 7 was added. The solution was then incubated for 4 h at 37 °C in the dark. Proteins were precipitated with 33 mL of ACN. The mixture was cooled to −30 °C and stored for 2 h at −20 °C. Subsequently, the supernatant was separated by centrifugation (3000 rpm), collected, and dried by lyophilization. The lyophilizate was extracted three times with 5 mL of DCM and finally dried under reduced pressure. The residue was taken up in 1 mL of ACN, and 30 μL was analyzed by the HPLC method described above. Peak area was used for quantification. The calibrations of 5, 7, and 8 were obtained by injecting 30 μL of the respective solution of pure substances in ACN at a concentration of 1–30 μM (R^2 > 0.99).

[13] = HPLC reactivity study with non-thiol containing amino acids in ACN/water; format: physicochemical; settings: for formation of 8: t24h, 0.5 mM
Description: as §1, §2, §3, §4, §5

[14] = at 10 μM, mean of three independent experiments
[15] = t24h, chloride containing ACN/water 50/50, 0.5 mM

Row | Substance | substitution to (NHC)Au(I)-GSH adduct 12 ([1]; ACN/water 50/50, 0.5 mM) | IC50 (K562 cells) [µM] | IC50 [2] [µM] | IC50 [3] [µM] | metabolic activity (remaining) in SV-80 cells [4, 14] [%] | IC50 (A549 cells) [µM] | IC50 (IGROV1-CSC cells) [µM] | conversion to 5 ([5]; t0h) | IC50 (A2780 cells) [µM] | IC50 [6] [µM] | IC50 (MCF-7 cells) [µM] | IC50 [7] [µM] | conversion to 5 ([8]; t0h (1.5 min)) | IC50 (IGROV1 cells) [µM] | formation of 8 ([5]; t24h, ACN/RPMI 1640 50/50) [%] | formation of GSH-adduct 12 ([5]; t24h, ACN/RPMI 1640 50/50) | formation of 8 (ligand scrambling / reduction) [8, 15] [%] | other results
1 | Bromido[1,3-diethyl-4,5-diphenyl-1H-imidazol-2-ylidene]gold(I) [Complex 6] | quantitatively | > 10 | 2.87 ± 0.33 | 4.64 ± 0.44 | 20 | > 10 | 8.78 ± 0.6 | immediately converted | 9.38 ± 0.8 | > 10 | 4.54 ± 0.52 | > 10 | quantitatively | 5.78 ± 0.9 |  |  |  | 
2 | Chlorido[1,3-diethyl-4,5-diphenyl-1H-imidazol-2-ylidene]gold(I) [Complex 5] | quantitatively | > 10 | 4.08 ± 0.8 | 4.95 ± 0.39 | 64 | > 10 | 9.18 ± 1.32 |  | 9.45 ± 0.96 | > 10 | 5.76 ± 0.88 | > 10 |  | 7.53 ± 1.9 | 6.2 | 5.1% | 0.9 | ligand scrambling to 8 [9]: 5.6%; ligand scrambling to 8 [10]: 3.4%; formation of 12 ([11]; t0h): 65.7%; formation of 8 ([11]; t24h): 2.1%; formation of 12 ([11]; t24h): 68.0%
3 | Iodido[1,3-diethyl-4,5-diphenyl-1H-imidazol-2-ylidene]gold(I) [Complex 7] | 9.7% | 0.72 ± 0.3 | 0.4 ± 0.06 | 1.63 ± 0.79 |  | 1.12 ± 0.17 | 0.47 ± 0.13 | 14.3% | 1.43 ± 0.4 | 1.53 ± 1.04 | 0.48 ± 0.08 | 1.21 ± 0.36 | 13.3% | 1.94 ± 0.35 | 23.1 | No GSH-adduct 12 could be detected | 18.9 | start of ligand scrambling ([1]; time-dependent analysis): 1 h; formation of 8 ([1]; t24h, ACN/water 50/50, 0.5 mM): 9.8%; proportion of 12 ([1]; t24h, ACN/water 50/50, 0.5 mM): 4.7%; concentration in the free fraction after incubation of 7 ([12]; 7 (30 μM) in RPMI 1640 + 10% FCS, dark, protein precipitation with ACN, from HPLC peak areas): 780 nM; protein-bound fraction ([12]; 7 and its degradation products in RPMI 1640 + 10% FCS): about 50%; metabolic activity (remaining) in SV-80 cells ([4]; at 1.5 μM): 77%; amount of 5 formed ([5]; during 24 h, ACN/RPMI 1640 50/50): remained constant; formation of 8 ([5]; t0h, ACN/RPMI 1640 50/50): 0.8%; formation of 8 ([8]; t0h (1.5 min), chloride containing ACN/water 50/50, 0.5 mM): 3.6%; quantity of 5 formed [8, 15]: stayed constant; ratio of 7/8 ([13]; 20 equiv arginine (Arg), after 30 min, stable until 24 h): 90/10; reaction with amino acids ([13]; 20 equiv non-thiol containing amino acid, ACN/water 50/50): did not react; formation of 8 ([13]; 20 equiv glutamic acid (Glu), ACN/water 50/50): 31.6%; formation of 8 ([13]; 20 equiv methionine (Met), ACN/water 50/50): 27.5%; formation of 8 ([13]; pure ACN/water 50/50): 31.2%
